{"source": "patent US6818407B2", "about": "“Anti-endotoxic antimicrobial cationic peptides and methods of use therfor” (priority 1998, dated 2004)", "format_in_all_cases": "cell-based", "key": {"[1]": {"test_system": "Aeromonas salmonicida (As)", "details": "Mueller Hinton Broth", "description": "(§1) The biological activity of the peptides can be determined by standard methods known to those of skill in the art, such as Aminimal inhibitory concentration (MIC)≅ assay described in the present examples, whereby the lowest concentration at which no change in OD is observed for a given period of time is recorded as MIC. Alternatively, Afractional inhibitory concentration (FIC)≅ is also useful for determination of synergy between the peptides of the invention, or the peptides in combination with known antibiotics. FICs are performed by checkerboard titrations of peptides in one dimension of a microtiter plate, and of antibiotics in the other dimension, for example. The FIC is calculated by looking at the impact of one antibiotic on the MIC of the other and vice versa. […] Preferably, an FIC of less than 0.5 is obtained for synergism. As used herein, FIC can be determined as follows: [formula]\n(§2) These peptides varied in activity (Table 11), however, the C-terminally capped pleurocidin especially and its N-terminally capped lysine derivative had much better activities against a variety of bacteria including Vibrio anguillarum (Va), Aeromonas salmonicida (As), Staphylococcus epidermidis (C621), Salmonella typhimurium wild type (C587) and phoP phoQ mutant (C610), and Pseudomonas aeruginosa wild type (K799) and outer membrane barrier altered (Z61). The antimicrobial peptide CEME, a fusion peptide made from portions of an insect defensin ceropin A and the bee venom peptide melittin (Piers and Hancock, Mol. Microbiol., 12:951-8, 1994), as well as the known antibiotics polymyxin B and gentamicin were used as controls. Replacing the pleurocidin N-terminus with the dermaseptin N-terminus had no effect. Replacing pleurocidin N-terminus with the ceratoxin N-terminus reduced activity. […] Amidating the C-terminus improved antimicrobial activity. Replacing the pleurocidin C-terminus with the misgurin C-terminus had no effect.\n(§3) Bacteria included Vibrio anguillarum (Va), Aeromonas salmonicida (As), Staphylococcus epidermidis (C621), Salmonella typhimurium wild type (C587) and phoP phoQ mutant (C6 10), and Pseudomonas aeruginosa wild type (K799) and outer membrane barrier altered (Z61)."}, "[2]": {"test_system": "Pseudomonas aeruginosa outer membrane barrier altered (Z61)", "details": "Mueller Hinton Broth", "description": "as §1, §2, §3"}, "[3]": {"test_system": "Pseudomonas aeruginosa wild type (K799)", "details": "Mueller Hinton Broth", "description": "as §1, §2, §3"}, "[4]": {"test_system": "Salmonella typhimurium phoP phoQ mutant (C610)", "details": "Mueller Hinton Broth", "description": "as §1, §2, §3"}, "[5]": {"test_system": "Salmonella typhimurium wild type (C587)", "details": "Mueller Hinton Broth", "description": "as §1, §2, §3"}, "[6]": {"test_system": "Staphylococcus epidermidis (C621)", "details": "Mueller Hinton Broth", "description": "as §1, §2, §3"}, "Vibrio anguillarum (Va)": {"test_system": "Vibrio anguillarum (Va)", "details": "Mueller Hinton Broth", "description": "as §1, §2, §3"}, "E. coli [7]": {"test_system": "E. coli", "experiment": "MIC, broth microdilution assay in polypropylene microtiter trays", "details": "average of three separate experiments", "description": "as §1\n(§4) A method which employed polypropylene microtiter trays in a broth microdilution assay was developed."}, "P. aeruginosa": {"test_system": "P. aeruginosa", "experiment": "MIC, broth microdilution assay in polypropylene microtiter trays", "details": "average of three separate experiments", "description": "as §1, §4"}, "S. aureus K147": {"test_system": "S. aureus K147", "experiment": "MIC, broth microdilution assay in polypropylene microtiter trays", "details": "average of three separate experiments", "description": "as §1, §4"}, "S. aureus": {"test_system": "S. aureus", "experiment": "MIC, broth microdilution assay in polypropylene microtiter trays", "details": "average of three separate experiments", "description": "as §1, §4"}, "[8]": {"test_system": "P. aeruginosa efflux mutant (Nal B, H744)", "experiment": "microbe, parasite or virus in culture", "description": "as §1\n(§5) To test whether the peptides of the invention synergize with various antibiotics, the following method was employed. Fractional Inhibitory Concentration (FIC) was used to determine synergy of peptides combined with antibiotics (e.g., carbenicillin/ciprofloxacin) against Pseudomonas aeruginosa. The following methodology was followed:\n(§6) (1) Determination of MIC of cationic peptides (MIC A):\n(§7) 100 μl Mueller Hinton broth (MHB) was added per well\n(§8) 12.5 μl of 10× test concentration peptide was added per well to get final peptide concentration of e.g., 128, 64, 32, . . . 0.025 μg/ml from row 1 to 11;\n(§9) 10 μl of 10^−4 dilution of overnight bacterial culture was added per well.\n(§10) (2) Determination of MIC of Carbenicillin/Ciprofloxacin (MIC B):\n(§11) 100 μl MHB was added per well;\n(§12) 100 μl of 2× test concentration of antibiotic was added in the first well of the row, and doubling dilutions performed across the plate from column 1 to 11;\n(§13) (3) Determination of MIC of antibiotics (B) when combined with peptides at concentration A:\n(§14) 100 μl Carbenicillin (512 μg/ml) or Ciprofloxacin (8 μg/ml) was added in each well of column 1; doubling dilutions were performed across the plate;\n(§15) 100 μl of the peptide was added in all wells of row 1, mixed, and 100 μl withdrawn and added to row 2, etc., creating a checkerboard titration.\n(§16) 10 μl of 10^−4 dilution of overnight culture was added per well;\n(§17) plates were incubated at 37EC for 18-24 hours. Combination MIC values A and B were taken as the lowest concentration of drug that reduced bacterial growth by more than 50% in any given column.\n(§18) (4) FIC index=FICA+FICB=(A)/MIC A+(B)/MIC B. An FIC index of approximately 0.5 or less indicates synergy; 1.0 reflects additivity; and >1.0 indicates antagonism."}, "[9]": {"test_system": "mutant (Nal B, H744) of P. aeruginosa", "experiment": "microbe, parasite or virus in culture", "description": "as §1, §5, §6, §7, §8, §9, §10, §11, §12, §13, §14, §15, §16, §17, §18"}, "[10]": {"test_system": "β-lactamase derepressed mutant (H547) of P. aeruginosa", "experiment": "microbe, parasite or virus in culture", "description": "as §1, §5, §6, §7, §8, §9, §10, §11, §12, §13, §14, §15, §16, §17, §18"}, "[11]": {"test_system": "P. aeruginosa gyrase mutant (Nal A, H374)", "description": "as §1, §5, §6, §7, §8, §9, §10, §11, §12, §13, §14, §15, §16, §17, §18"}, "E. coli [12]": {"test_system": "E. coli", "experiment": "Synergy study (checkerboard titration) with hen white lysozyme", "description": "as §1"}, "P. aeruginosa (H103)": {"test_system": "P. aeruginosa (H103)", "experiment": "Synergy study (checkerboard titration) with hen white lysozyme", "description": "as §1"}, "Salmonella typhi": {"test_system": "Salmonella typhi", "experiment": "Synergy study (checkerboard titration) with hen white lysozyme", "description": "as §1"}, "[13]": {"details": "cationic peptide concentration, combined with lysozyme"}, "[14]": {"details": "lysozyme concentration, combined with the peptide"}}, "note": "Ends that are not written are not given here.", "data": [{"molecule": "KGWGSFFKKAAHVGKHVGKAALTHYL-NH2 [Peptide P-1-CN]", "values": [{"measurement": "MIC As", "setting": "[1]", "result": 1, "unit": "µg/mL"}, {"measurement": "MIC Z61", "setting": "[2]", "result": 2, "unit": "µg/mL"}, {"measurement": "MIC K799", "setting": "[3]", "result": 8, "unit": "µg/mL"}, {"measurement": "MIC C610", "setting": "[4]", "result": "<0.5", "unit": "µg/mL"}, {"measurement": "MIC C587", "setting": "[5]", "result": 2, "unit": "µg/mL"}, {"measurement": "MIC C621", "setting": "[6]", "result": 2, "unit": "µg/mL"}, {"measurement": "MIC Va", "setting": "Vibrio anguillarum (Va)", "result": 2, "unit": "µg/mL"}]}, {"molecule": "SIGSAFKKAAHVGKHVGKAALGAAARRRK [CER-M]", "values": [{"measurement": "MIC As", "setting": "[1]", "result": 32, "unit": "µg/mL"}, {"measurement": "MIC Z61", "setting": "[2]", "result": 64, "unit": "µg/mL"}, {"measurement": "MIC K799", "setting": "[3]", "result": ">64", "unit": "µg/mL"}, {"measurement": "MIC C610", "setting": "[4]", "result": 8, "unit": "µg/mL"}, {"measurement": "MIC C587", "setting": "[5]", "result": ">64", "unit": "µg/mL"}, {"measurement": "MIC C621", "setting": "[6]", "result": ">64", "unit": "µg/mL"}, {"measurement": "MIC Va", "setting": "Vibrio anguillarum (Va)", "result": ">64", "unit": "µg/mL"}]}, {"molecule": "KKWKKFIKKIGIGAVLTTPGAKK [CPα3]", "values": [{"measurement": "MIC E. coli", "setting": "E. coli [7]", "result": 4, "unit": "µg/mL"}, {"measurement": "MIC P. aeruginosa", "setting": "P. aeruginosa", "result": "≧64 μg/ml"}, {"measurement": "MIC S. aureus K147", "setting": "S. aureus K147", "result": ">64", "unit": "µg/mL"}, {"measurement": "MIC S. aureus", "setting": "S. aureus", "result": ">64", "unit": "µg/mL"}, {"measurement": "(B) MIC of Nal when combined with peptide", "setting": "[8]; nalidixic acid with peptide at concentration (A), efflux mutant Nal B, H744, unit from method", "result": 400, "unit": "µg/mL"}, {"measurement": "FIC index", "setting": "[8]; peptide + nalidixic acid, efflux mutant Nal B, H744", "result": 0.50}, {"measurement": "MIC A MIC of Peptides", "setting": "[8]; peptide alone, P. aeruginosa efflux mutant Nal B, H744 (Table 6)", "result": 4, "unit": "µg/mL"}, {"measurement": "(A) Peptide doses together with Nal", "setting": "[8]; peptide concentration in combination with nalidixic acid, efflux mutant Nal B, H744", "result": 1, "unit": "µg/mL"}, {"measurement": "(B) MIC of Cipro when combined with peptide", "setting": "[9]; ciprofloxacin with peptide at concentration (A), Nal B, H744", "result": ".125 µg/mL"}, {"measurement": "FIC index", "setting": "[9]; peptide + ciprofloxacin, Nal B, H744", "result": ".75"}, {"measurement": "MIC A MIC of Peptides", "setting": "[9]; peptide alone, P. aeruginosa mutant Nal B, H744 (Table 5)", "result": 4, "unit": "µg/mL"}, {"measurement": "(A) Peptide doses together with Cipro", "setting": "[9]; peptide concentration in combination with ciprofloxacin, Nal B, H744", "result": 1, "unit": "µg/mL"}, {"measurement": "(B) MIC of Carb when combined with peptide", "setting": "[10]; Carbenicillin with peptide at concentration (A), P. aeruginosa H547", "result": 32, "unit": "µg/mL"}, {"measurement": "FIC index", "setting": "[10]; peptide + Carbenicillin, P. aeruginosa H547, about 0.5 or less synergy, 1.0 additivity, >1.0 antagonism", "result": 0.75}, {"measurement": "MIC A MIC of Peptides", "setting": "[10]; peptide alone, P. aeruginosa H547", "result": 16, "unit": "µg/mL"}, {"measurement": "(A) Peptide doses together with Carb", "setting": "[10]; peptide concentration in combination with Carbenicillin, P. aeruginosa H547", "result": 4, "unit": "µg/mL"}, {"measurement": "(B) MIC of Nal when combined with peptide", "setting": "[11]; nalidixic acid with peptide at concentration (A), Nal A, unit from method", "result": 800, "unit": "µg/mL"}, {"measurement": "FIC index", "setting": "[11]; peptide + nalidixic acid, Nal A", "result": 0.50}, {"measurement": "MIC A MIC of Peptides", "setting": "[11]; peptide alone, P. aeruginosa gyrase mutant Nal A", "result": 8, "unit": "µg/mL"}, {"measurement": "(A) Peptide doses together with Nal", "setting": "[11]; peptide concentration in combination with nalidixic acid, Nal A", "result": 1, "unit": "µg/mL"}, {"measurement": "FIC for combination of cationic peptide and lysozyme", "setting": "E. coli [12]", "result": 0.31}, {"measurement": "Lowest [CP] showing synergy", "setting": "E. coli [12]; [13]", "result": 0.65, "unit": "µg/mL"}, {"measurement": "Lowest [Lyso] showing synergy", "setting": "E. coli [12]; [14]", "result": 62.5, "unit": "µg/mL"}, {"measurement": "FIC for combination of cationic peptide and lysozyme", "setting": "P. aeruginosa (H103)", "result": 0.08}, {"measurement": "Lowest [CP] showing synergy", "setting": "P. aeruginosa (H103); [13]", "result": 1.3, "unit": "µg/mL"}, {"measurement": "Lowest [Lyso] showing synergy", "setting": "P. aeruginosa (H103); [14]", "result": 7.8, "unit": "µg/mL"}, {"measurement": "FIC for combination of cationic peptide and lysozyme", "setting": "Salmonella typhi", "result": "Confluent"}]}, {"molecule": "CC1(C)S[C@@H]2[C@H](NC(=O)C(C(=O)O)c3ccccc3)C(=O)N2[C@H]1C(=O)O", "note": "(some centres unmarked) [Carb, Carbenicillin, reference compound]", "values": [{"measurement": "MIC", "setting": "[10]; Pseudomonas aeruginosa, read-out: MIC B MIC of Carb", "result": 64, "unit": "µg/mL"}]}, {"molecule": "CCn1cc(C(=O)O)c(=O)c2ccc(C)nc21", "note": "[Nal, nalidixic acid, reference compound]", "values": [{"measurement": "MIC", "setting": "[8]; Pseudomonas aeruginosa, read-out: MIC B MIC of Nal", "result": 3200, "unit": "µg/mL"}, {"measurement": "MIC B MIC of Nal", "setting": "[8]; nalidixic acid alone, efflux mutant Nal B, H744, unit from method", "result": 3200, "unit": "µg/mL"}]}]}
